We go through 13 compounds from patent publication US10851083B2, “Benzoimidazoles as prolyl hydroxylase inhibitors” (Janssen Pharmaceutica NV, priority 2008, dated 2020).

Assay [1] concerns the target human PHD2181-417 (Homo sapiens (Human), UniProt Q9GZT9). In words: PHD2 enzyme activity assay ([14C]-succinic acid production).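 As to all read-outs here: reaction ran 10 min with compound in Tris pH 7.5 buffer with catalase, DTT and ascorbate, labelled succinate freed of leftover 2-oxoglutarate by DNP precipitation, then beta counted.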 Format: biochemical. Conditions: PHD2181-417 polypeptide, HIF-1α peptide 10 μM, [5-14C]-2-oxoglutaric acid, 30 min pre-incubation, tested 10 μM to 3 nM; for IC50: read-out: Enzyme pIC50 (converted).
Assay [2] deals with Hep-3B cells. In words: Cellular assay: EPO secretion in Hep-3B cells. Format: cell-based, human. Set-up: EPO secretion, % of control compound: dose or concentration left out as unconfirmed. Conditions: 24 h, EPO secretion as percentage of control compound 7-[(4-Chloro-phenyl)-(5-methyl-isoxazol-3-ylamino)-methyl]-quinolin-8-ol; for EPO secretion, % of control compound: Homo sapiens, Hep3B, read-out: Cellular % EPO Stimulation; for Cellular % EPO Stimulation: compound at 100 μM (10 μM or 100 μM).

Chain of human PHD2181-417 (Q9GZT9 181-417): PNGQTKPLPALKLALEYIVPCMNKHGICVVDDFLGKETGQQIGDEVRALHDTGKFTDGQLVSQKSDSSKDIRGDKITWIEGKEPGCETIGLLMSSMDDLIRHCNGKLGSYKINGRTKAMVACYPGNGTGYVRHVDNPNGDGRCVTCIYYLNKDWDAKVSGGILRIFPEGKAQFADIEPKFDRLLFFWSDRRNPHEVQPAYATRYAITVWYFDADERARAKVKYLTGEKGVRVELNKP

As to `O=C(O)c1cnn(-c2nc3cc(Cl)c(Cl)cc3[nH]2)c1` [Example 2, 1-(5,6-Dichloro-1H-benzoimidazol-2-yl)-1H-pyrazole-4-carboxylic Acid], the “Enzyme pIC50” value in assay [1] was 6.9. Moreover, in assay [2], the EPO secretion, % of control compound turned out to be 152%.
Turning to `O=C(O)c1cn(-c2nc3cc(Cl)c(Cl)cc3[nH]2)nc1C(F)(F)F` [Example 20, 1-(5,6-dichloro-1H-benzoimidazol-2-yl)-3-trifluoromethyl-1H-pyrazole-4-carboxylic Acid], in assay [1], the IC50 was above 100 µM. Also, the “Cellular % EPO Stimulation” value in assay [2] came out at 18.81%.
In the same order, the values of `Cc1nn(-c2nc3cc(Cl)c(Cl)cc3[nH]2)c(C)c1C(=O)O` [Example 22, 1-(5,6-Dichloro-1H-benzoimidazol-2-yl)-3,5-dimethyl-1H-pyrazole-4-carboxylic Acid] are above 100 µM and 0.47%.
Consider `O=C(O)c1cnn(-c2nc3c(Cl)cccc3[nH]2)c1` [Example 27, 1-(4-Chloro-1H-benzoimidazol-2-yl)-1H-pyrazole-4-carboxylic Acid], for which the “Enzyme pIC50” value in assay [1] is 6.1. In addition, the EPO secretion, % of control compound in assay [2] came to 19.1%.
With `O=C(O)c1cnn(-c2nc3cc(Cl)cc(C(F)(F)F)c3[nH]2)c1` [Example 28, 1-(5-Chloro-7-trifluoromethyl-1H-benzoimidazol-2-yl)-1H-pyrazole-4-carboxylic Acid], the “Enzyme pIC50” value in assay [1] amounted to 6.4. The EPO secretion, % of control compound in assay [2] worked out at 16.6%.
The like results for `O=C(O)c1cnn(-c2nc3c(F)c(F)c(F)cc3[nH]2)c1` [Example 31, 1-(4,5,6-Trifluoro-1H-benzoimidazol-2-yl)-1H-pyrazole-4-carboxylic Acid] were, in that order, 7 and 18.2%.
As to `O=C(O)c1cnn(-c2nc3cc(SCc4ccc(C(F)(F)F)cc4)c(Cl)cc3[nH]2)c1` [Example 170, 1-[6-Chloro-5-(4-trifluoromethyl-benzylsulfanyl)-1H-benzoimidazol-2-yl]-1H-pyrazole-4-carboxylic Acid], the “Enzyme pIC50” value in assay [1] amounted to 6.7.
`O=C(O)c1cnn(-c2nc3cc(SCc4ccc(C(F)(F)F)cc4C(F)(F)F)c(Cl)cc3[nH]2)c1` [Example 171, 1-[5-(2,4-Bis-trifluoromethyl-benzylsulfanyl)-6-chloro-1H-benzoimidazol-2-yl]-1H-pyrazole-4-carboxylic Acid]: the “Enzyme pIC50” value in assay [1] is given as 6.7.
Still for that read-out and setting: to `N#Cc1ccccc1-c1ccc(CSc2cc3nc(-n4cc(C(=O)O)cn4)[nH]c3cc2Cl)cc1` [Example 172, 1-[6-Chloro-5-(2′-cyano-biphenyl-4-ylmethylsulfanyl)-1H-benzoimidazol-2-yl]-1H-pyrazole-4-carboxylic Acid] belongs 7.5; to `Cc1ccc(CS(=O)(=O)c2cc3nc(-n4cc(C(=O)O)cn4)[nH]c3cc2Cl)cc1` [Example 178, 1-(6-Chloro-5-p-tolylmethanesulfonyl-1H-benzoimidazol-2-yl)-1H-pyrazole-4-carboxylic Acid], 7.7.
For `O=C(O)c1cnn(-c2nc3cc(S(=O)(=O)Cc4ccc(C(F)(F)F)cc4)c(Cl)cc3[nH]2)c1` [Example 179, 1-[6-Chloro-5-(4-trifluoromethyl-phenylmethanesulfonyl)-1H-benzoimidazol-2-yl]-1H-pyrazole-4-carboxylic Acid], the “Enzyme pIC50” value in assay [1] is on record as 7.7.
The same measure, in the same setting: to `O=C(O)c1cnn(-c2nc3cc(S(=O)(=O)Cc4ccc(C(F)(F)F)cc4C(F)(F)F)c(Cl)cc3[nH]2)c1` [Example 180, 1-[5-(2,4-Bis-trifluoromethyl-phenylmethanesulfonyl)-6-chloro-1H-benzoimidazol-2-yl]-1H-pyrazole-4-carboxylic Acid] belongs 7.6.
Still for that read-out and setting: next, `N#Cc1ccccc1-c1ccc(CS(=O)(=O)c2cc3nc(-n4cc(C(=O)O)cn4)[nH]c3cc2Cl)cc1` [Example 181, 1-[6-Chloro-5-(2′-cyano-biphenyl-4-ylmethanesulfonyl)-1H-benzoimidazol-2-yl]-1H-pyrazole-4-carboxylic Acid]: 7.7.
